Here are results for 17 molecules from PubChem BioAssay (NCI).

A word on the GI50: it is the concentration giving 50% growth inhibition. In general, TGI refers to the concentration at which net growth stops. A higher TGI goes with less potent growth arrest.

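In this assay, cells in 96-well plates receive the compound at five concentrations for 48 hours. Endpoints are linearly interpolated between the surrounding concentrations. At the GI50, growth is halved. The concentration for full growth arrest is given as TGI.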

Common to all, as to test: DTP human tumour cell line panel, 48 h
For test [1], the system named is MALME-3M melanoma.
Test [2] has as its system LOX IMVI melanoma.
The subject of test [3] is OVCAR-4 ovarian.
The test system of test [4] is HCT-15 colon.
Test [5] has as its system COLO 205 colon.
For test [6], the system named is OVCAR-3 ovarian.
Test [7] concerns A498 renal.
Test [8] has as its system NCI-H522 lung.
The test system of test [9] is HOP-92 NSCLC.
For test [10], the system named is NCI-H460 lung.

On to `Cc1sc2c(c1C)C(c1ccc(Cl)cc1)=N[C@@H](CC(=O)Nc1ccc(OCCOCCOCCOCCNc3cccc4c3C(=O)N(C3CCC(=O)NC3=O)C4=O)cc1)c1nnc(C)n1-2` (stereo not given in full), for which the GI50 in test [1] was > 100 µM; in test [2] it was 0.234 µM; in [3], < 0.0174 µM; in test [4], 0.394 µM; in [5] it was < 0.0279 µM; in [6] it was 0.551 µM. The GI50 in test [7] is 0.013 µM; in test [8] it was 0.518 µM; in test [9] it was < 0.0125 µM; in test [10], 2.13 µM. Also, the TGI in [1] was > 100 µM; in test [2], 19.1 µM; in [3] it was > 100 µM; in [4] it was > 100 µM; in test [5], > 82.4 µM; in test [6], > 100 µM. The total growth inhibition concentration (TGI) in [7] is 0.0962 µM; in [8], > 100 µM; in [9], > 51.8 µM; in test [10], > 100 µM.

On to `CCOc1ccc(N=Cc2c3ccccc3nc3ccccc23)cc1`, for which the concentration for total growth inhibition (TGI) in [1], in [2], in test [3], in test [4], in test [5] and in test [6] was > 100 µM throughout. The total growth inhibition concentration (TGI) in test [7], in [8], in test [9] and in test [10] was > 100 µM each time.

With `COC(=O)[C@]12CC[C@@H](C)[C@H](C)[C@@H]1C1=CC[C@@H]3[C@@]4(C)C(C=O)=C[C@@](C)(COC(=O)c5ccco5)[C@@H]4[C@H](O)C[C@@]3(C)[C@]1(C)CC2`, the GI50 is 0.224 µM in test [1]; 1.57 µM in test [2]; 2.38 µM in test [3]; 1.51 µM in test [4]; 0.0493 µM in [5]; 1.87 µM in [6]. Moreover, the GI50 is 3.19 µM in test [7], 1.64 µM in [8], 1.56 µM in test [9] and 2.51 µM in test [10]. Further, the total growth inhibition concentration (TGI) in test [1] is 1.17 µM; in test [2], 2.94 µM; in [3] it was 28.2 µM; in test [4], 3.09 µM; in test [5] it was 0.355 µM; in [6], 3.73 µM. For the same molecule, the TGI in test [7] came to 12.7 µM; in test [8] it was 3.94 µM; in [9], 4.27 µM; in [10] it was 6.3 µM.

For the molecule `O=C1c2ccc3c4ccccc4n(-c4ccccc4)c3c2C(=O)N1c1ccc(Cl)cc1`, the concentration for total growth inhibition (TGI) in test [1], in [2], in test [3], in test [4], in [5] and in [6] was > 100 µM in each case. Moreover, the TGI in test [7] was > 100 µM; in test [8] it was > 100 µM; in test [9], 75 µM; in [10], > 100 µM.

In the case of `Nc1c(C(=O)Nc2ccccc2Cl)sc2nc3c(cc12)C(=O)CCC3`, the GI50 was 2.78 µM in [1]; 51.9 µM in test [2]; > 27.5 µM in test [3]; 0.626 µM in [4]; 0.724 µM in [5]; 1.22 µM in [6]. For the same molecule, the GI50 in test [7] is 0.229 µM; in test [8] it was 0.777 µM; in test [9], 7.29 µM; in test [10] it was 0.673 µM. Further, the TGI in test [1] was > 100 µM; in [2], > 100 µM; in test [3] it was > 100 µM; in test [4] it was > 100 µM; in test [5], 3.54 µM; in test [6], > 100 µM. Moreover, the TGI in [7], in test [8], in test [9] and in test [10] was > 100 µM in each case.

Take `Oc1ccc(N=Nc2nccs2)c(O)c1`: the GI50 in [1] is 14.7 µM; in test [2], 3.28 µM; in [3], 3.46 µM; in [4], 2.85 µM; in test [5] it was 3.21 µM; in test [6], 2.4 µM. In addition, the GI50 is 18.8 µM in [7], 3.5 µM in test [8], 3.34 µM in test [9] and 3.67 µM in [10]. Besides, the concentration for total growth inhibition (TGI) was 34.3 µM in [1]; 18.7 µM in [2]; > 100 µM in test [3]; 14.9 µM in [4]; 12 µM in test [5]; 7.37 µM in test [6]. Moreover, the TGI in test [7] was determined as 40.5 µM; in [8] it was 13.6 µM; in test [9], 24.7 µM; in [10], 17.9 µM.

On to `COc1ccc(-c2nn(-c3cccc(Cl)c3)cc2-c2nc(N)[nH]c(=O)c2C#N)cc1`, for which the GI50 in test [1] was 5.83 µM; in [2], 4.02 µM; in [3], 7.71 µM; in test [4] it was 5.07 µM; in test [5], 7.65 µM; in test [6] it was 3.38 µM. Moreover, the GI50 was 1.47 µM in test [7], 3.11 µM in test [8], 1.65 µM in test [9] and 6 µM in test [10]. Also, the total growth inhibition concentration (TGI) in test [1] was 40.6 µM; in [2], 20.1 µM; in test [3] it was 61.9 µM; in [4] it was > 100 µM; in [5], 20.9 µM; in [6], 10 µM. The total growth inhibition concentration (TGI) in test [7] is 6.75 µM; in test [8] it was 9.8 µM; in test [9], 12.2 µM; in [10], 27.7 µM.

Turning to `Cc1ccc2occ/c(=N\Nc3ccccc3)c2c1`, the TGI in [1], in test [2], in test [3], in test [4], in test [5] and in test [6] was > 100 µM throughout. In addition, the TGI in test [7] was > 100 µM; in [8], > 100 µM; in test [9], 97.4 µM; in test [10] it was > 100 µM.

With `CC1(C)N=C(N)N=C(N)N1c1cccc(OCCOc2cccc([N+](=O)[O-])c2)c1`, the GI50 in test [1] is 7.54 µM; in test [2] it was 2.15 µM; in [3], 14.4 µM; in [4], > 100 µM; in test [5], 2.13 µM; in [6], 5.13 µM. Further, the GI50 in test [7] is > 67.7 µM; in test [8], 1.19 µM; in [9], 3.51 µM; in [10], 0.541 µM. The TGI in [1], in test [2], in test [3], in test [4], in test [5] and in test [6] was > 100 µM throughout. The TGI was > 100 µM in test [7], 62.5 µM in [8], 73.5 µM in test [9] and > 100 µM in test [10].

With `C=C(C)[C@@H]1CC[C@]2(C)[C@H](CC[C@@H]3[C@@H]([C@@](C)(O)CCC=C(C)C)CC[C@]32C)[C@@]1(C)CCC(=O)O`, the GI50 in [1] was 14.4 µM; in test [2], 17.9 µM; in [3], 16.3 µM; in test [4] it was 15.4 µM; in test [5] it was 17.7 µM; in [6], 15.9 µM. The GI50 in test [7] is 29.5 µM; in [8], 20.3 µM; in [9], 12.7 µM; in test [10] it was 31.9 µM. The TGI was 28.2 µM in test [1]; 31.8 µM in test [2]; 39 µM in test [3]; 31 µM in test [4]; 35.6 µM in [5]; 29.8 µM in test [6]. Moreover, the TGI in [7] is > 100 µM; in test [8], 63.5 µM; in [9], 27.2 µM; in [10], > 100 µM.

Consider `CC12CCC(=O)N1c1cccnc1N2` (stereo not given), for which the total growth inhibition concentration (TGI) in test [1], in [2], in test [3], in [4], in test [5] and in [6] was > 100 µM throughout. Moreover, the concentration for total growth inhibition (TGI) in [7], in test [8], in test [9] and in test [10] was > 100 µM throughout.

For the molecule `O=C1C=CC(=CC=C2C=CN(CCCCCCCCCCC(=O)NCCCCCCCCCCCC(=O)O)C=C2)C=C1`, the concentration for total growth inhibition (TGI) in [1], in test [2], in [3], in test [4], in [5] and in test [6] was > 100 µM each time. Also, the TGI in [7], in test [8], in test [9] and in [10] was > 100 µM in each case.

Turning to `C=CCn1c(SCC(=O)Nc2ccc(C(=O)/C=C/c3cc(OC)c(OC)c(OC)c3)cc2)nnc1-c1ccc(OC)cc1`, the GI50 in [1] was 1.89 µM; in [2] it was 0.28 µM; in [3], 0.783 µM; in [4], 0.277 µM; in test [5], 0.399 µM; in [6], 0.343 µM. In addition, the GI50 in [7] is 1.5 µM; in [8], 0.689 µM; in test [9], 2.25 µM; in [10], 0.698 µM. In addition, the TGI in test [1] was found to be 36.8 µM; in test [2] it was 1.03 µM; in test [3], 10.5 µM; in test [4], 1.26 µM; in [5], 3.83 µM; in [6], 1.02 µM. Further, the TGI in test [7] is 2.91 µM; in test [8], 3.37 µM; in test [9], 16.4 µM; in test [10] it was 2.59 µM.

On to `O=C(N/N=C/c1ccc(O)cc1O)c1cccnc1`, for which the GI50 in [1] is 5.16 µM; in test [2] it was 1.84 µM; in [3], 0.692 µM; in test [4], 0.614 µM; in test [5] it was 2.8 µM; in test [6], 0.474 µM. Moreover, the GI50 in test [7] was 11.5 µM; in [8] it was 3.21 µM; in test [9], 2.09 µM; in test [10], 1.18 µM. Besides, the total growth inhibition concentration (TGI) in test [1] is 39.2 µM; in [2], > 100 µM; in [3], 11.9 µM; in test [4], > 100 µM; in test [5], > 100 µM; in [6], 29.4 µM. Moreover, the total growth inhibition concentration (TGI) in [7] is 84.1 µM; in test [8], > 100 µM; in test [9] it was 43.5 µM; in [10], > 100 µM.

Take `CCOC(=O)C1=C(N)Oc2c(sc3c(C)cccc23)C1c1ccc(F)cc1` (stereo not given): the GI50 in test [1] was 0.588 µM; in [2], 0.596 µM; in [3], 3.33 µM; in test [4], 0.415 µM; in test [5], 0.633 µM; in [6], 0.403 µM. Moreover, the GI50 was 0.211 µM in [7], 0.35 µM in test [8], 2.13 µM in test [9] and 0.415 µM in test [10]. The concentration for total growth inhibition (TGI) was 20.8 µM in test [1]; 12.3 µM in test [2]; 18.3 µM in [3]; 10.9 µM in test [4]; 5.77 µM in [5]; 13.1 µM in [6]. The total growth inhibition concentration (TGI) in [7] came out at 1.26 µM; in [8], 3.29 µM; in test [9] it was 13.4 µM; in test [10] it was 11 µM.

With `COc1cc(/C=C/C(=O)Oc2ccccc2)ccc1C(=O)O/C=C/c1ccccc1`, the TGI in test [1] is > 100 µM; in [2] it was > 100 µM; in test [3], > 100 µM; in test [4], > 100 µM; in test [5], > 100 µM; in [6], > 31.6 µM. In addition, the total growth inhibition concentration (TGI) in test [7] is > 21.5 µM; in test [8], > 100 µM; in test [9] it was > 100 µM; in [10] it was > 100 µM.

As for `C[Si](C)(C)CN1C(=O)c2ccccc2C1(O)c1ccccc1` (stereo not given), the TGI in [1], in [2], in [3], in [4], in [5] and in [6] was > 100 µM throughout. Besides, the total growth inhibition concentration (TGI) in [7] was > 100 µM; in [8], > 100 µM; in test [9], 97.9 µM; in test [10], > 100 µM.
